Experimental data published in patent US5089273A, “Ecteinascidins 729, 743, 745, 759A, 759B and 770” (priority 1990, dated 1992).
Converted amounts (≈) assume the structure as drawn. Read-outs that look alike come from different tables or passages of the source.

Columns and labels:
M. luteus = assay: Antimicrobial activity vs. M. luteus (disk zones of inhibition); format: cell-based; details: for zone of inhibition at 0.1 µg/disc: 100 ng/6.35-mm disk; for zone of inhibition at 0.2 µg/disc: 200 ng/6.35-mm disk; for zone of inhibition at 0.4 µg/disc: 400 ng/6.35-mm disk
Method: (§1) The antimicrobial activities (vs. M. luteus) and the cytotoxic activities (vs. CV-1 cells) of the ecteinascidins and ecteinascidin 743 derivatives are shown in Table 1 and 2. […] All of the derivatives of ecteinascidin 743 that were prepared have antimicrobial and cytotoxic activities.

CV-1 cells = assay: Cytotoxic activity vs. CV-1 cells (disk zones of inhibition); format: cell-based; details: for zone of inhibition at 0.4 µg/disc / zone of inhibition at 0.8 µg/disc / zone of inhibition at 1.6 µg/disc / zone of inhibition at 0.05 µg/disc / zone of inhibition at 0.1 µg/disc / zone of inhibition at 0.2 µg/disc: Cercopithecidae, read-out: Zones of Inhibition
Method: as §1

Penicillium oxalicum = assay: Antimicrobial Spectrum, zones of inhibition; format: cell-based; details: 10 μg/disk, 6.35-mm disk
Sarcina lutea sens. = assay: Antimicrobial Spectrum, zones of inhibition; format: cell-based; details: Micrococcus luteus; 10 μg/disk; 6.35-mm disk
Saccharomyces cerevisiae = assay: Antimicrobial Spectrum, zones of inhibition; format: cell-based; details: 10 μg/disk, 6.35-mm disk
P388 leukemia = assay: In vivo P388 mouse leukemia test; details: for T/C: Example 6
Description: Compounds of this invention are also active in vivo against P388 leukemia in mice. The P388 mouse leukemia test is described in detail in a publication by G. L. Neil et al., Cancer Treatment Reports, 63: 1971-1978 (1979).

Escherichia coli = assay: Antimicrobial Spectrum, zones of inhibition; format: cell-based; details: 10 μg/disk, 6.35-mm disk
Staphylococcus aureus = assay: Antimicrobial Spectrum, zones of inhibition; format: cell-based; details: 10 μg/disk, 6.35-mm disk
Bacillus subtilis syn = assay: Antimicrobial Spectrum, zones of inhibition; format: cell-based; details: 10 μg/disk, 6.35-mm disk
bacteria = assay: Antibacterial Activity (disk zone of inhibition, Example 4); format: cell-based
Description: | Zone of inhibition (mm)

Klebsiella pneumoniae = assay: Antimicrobial Spectrum, zones of inhibition; format: cell-based; details: 10 μg/disk, 6.35-mm disk
Pseudomonas aeruginosa = assay: Antimicrobial Spectrum, zones of inhibition; format: cell-based; details: 10 μg/disk, 6.35-mm disk
[1] = tested on: L1210 mouse leukemia cells; assay: L1210 Tube Dilution Assay; format: cell-based
Description: The L1210 tube dilution assay is described in detail in a publication by L. H. Li, et al., Cancer Research, 39:4816 (1979). ID50 and ID90 refer to the concentration of ecteinascidin needed to inhibit cell growth by […], respectively.

Bacillus subtilis = assay: Antimicrobial Spectrum, zones of inhibition; format: cell-based; details: 10 μg/disk, 6.35-mm disk
Mycobacterium avium = assay: Antimicrobial Spectrum, zones of inhibition; format: cell-based; details: 10 μg/disk, 6.35-mm disk
Sarcina lutea = assay: Antimicrobial Spectrum, zones of inhibition; format: cell-based; details: Micrococcus luteus; 10 μg/disk; 6.35-mm disk
DNA = assay: biomedical induction assay (BIA), an assay for DNA interaction
[2] = Micrococcus luteus, 800 ng/6.35-mm disk
[3] = Micrococcus luteus, 1600 ng/6.35-mm disk

Compound: COc1cc2c(cc1O)CCN[C@]21CS[C@@H]2c3c(O)c(C)c4c(c3[C@H](COC1=O)N1[C@@H]2[C@H]2c3c(cc(C)c(OC)c3O)C[C@@H]([C@@H]1O)N2C)OCO4 [Deacetyl, Deacetylecteinascidin 743]
- zone of inhibition at 0.1 µg/disc (M. luteus; Micrococcus luteus): 8 mm
- zone of inhibition at 0.2 µg/disc (M. luteus; Micrococcus luteus): 10 mm
- zone of inhibition at 0.4 µg/disc (M. luteus; Micrococcus luteus): 12 mm
- zone of inhibition at 0.8 µg/disc (M. luteus; [2]): 14 mm
- zone of inhibition at 1.6 µg/disc (M. luteus; [3]): 16 mm
- zone of inhibition at 0.4 µg/disc (CV-1 cells; 400 ng/6.35-mm disk): 11 mm
- zone of inhibition at 0.8 µg/disc (CV-1 cells; 800 ng/6.35-mm disk): 15 mm
- zone of inhibition at 1.6 µg/disc (CV-1 cells; 1600 ng/6.35-mm disk): 16 mm

Compound: COc1cc2c(cc1O)CCN[C@]21CS[C@@H]2c3c(OC(C)=O)c(C)c4c(c3[C@H](COC1=O)N1[C@@H]2[C@H]2c3c(cc(C)c(OC)c3O)C[C@@H]([C@@H]1O)N2C)OCO4 [Ecteinascidin 743]
- zone of inhibition at 10 µg/disc (Penicillium oxalicum): 10 mm
- zone of inhibition at 10 µg/disc (Sarcina lutea sens.): 35 mm
- zone of inhibition at 0.05 µg/disc (M. luteus; Micrococcus luteus, 50 ng/6.35-mm disk): 9 mm
- zone of inhibition at 0.1 µg/disc (M. luteus; Micrococcus luteus): 12 mm
- zone of inhibition at 0.2 µg/disc (M. luteus; Micrococcus luteus): 13 mm
- zone of inhibition at 0.4 µg/disc (M. luteus; Micrococcus luteus): 14 mm
- zone of inhibition at 0.8 µg/disc (M. luteus; [2]): 20 mm
- zone of inhibition at 1.6 µg/disc (M. luteus; [3]): 23 mm
- antimicrobial activity (in words) (M. luteus; dilutions accurate to within a factor of 2): approximately equivalent and represent the most potent compounds in the series
- zone of inhibition at 10 µg/disc (Saccharomyces cerevisiae): 0 mm
- T/C (%) (P388 leukemia; 0.015 mg/kg, Table 4): 167%
- T/C (P388 leukemia; 0.031 mg/kg): 161
- T/C (P388 leukemia; 0.063 mg/kg): toxic
- zone of inhibition at 10 µg/disc (Escherichia coli): 11 mm
- zone of inhibition at 10 µg/disc (Staphylococcus aureus): 19 mm
- zone of inhibition at 0.05 µg/disc (CV-1 cells; 50 ng/6.35-mm disk): 14 mm
- zone of inhibition at 0.1 µg/disc (CV-1 cells; 100 ng/6.35-mm disk): 16 mm
- zone of inhibition at 0.2 µg/disc (CV-1 cells; 200 ng/6.35-mm disk): 20 mm
- zone of inhibition at 0.4 µg/disc (CV-1 cells; 400 ng/6.35-mm disk): 23 mm
- zone of inhibition at 0.8 µg/disc (CV-1 cells; 800 ng/6.35-mm disk): 23 mm
- zone of inhibition at 1.6 µg/disc (CV-1 cells; 1600 ng/6.35-mm disk): 28 mm
- zone of inhibition at 10 µg/disc (Bacillus subtilis syn): 26 mm
- Zone of inhibition (bacteria; 0.005 μg/disk): trace
- zone of inhibition at 0.01 µg/disc (bacteria; 0.01 μg/disk): 7 mm
- zone of inhibition at 0.02 µg/disc (bacteria; 0.02 μg/disk): 9 mm
- zone of inhibition at 0.05 µg/disc (bacteria; 0.05 μg/disk): 12 mm
- zone of inhibition at 0.1 µg/disc (bacteria; 0.1 μg/disk): 14 mm
- zone of inhibition at 0.2 µg/disc (bacteria; 0.2 μg/disk): 17 mm
- zone of inhibition at 10 µg/disc (Klebsiella pneumoniae): 20 mm
- zone of inhibition at 10 µg/disc (Pseudomonas aeruginosa): 0 mm
- IC90 ([1]; L1210, concentration needed to inhibit cell growth by 90 percent, in vitro, read-out: ID90 (the source's name)): 1.7 ng/mL (≈ 2.23 nM)
- IC50 ([1]; L1210, read-out: ID50): 0.5 ng/mL (≈ 0.656 nM)
- zone of inhibition at 10 µg/disc (Bacillus subtilis): 25 mm
- zone of inhibition at 10 µg/disc (Mycobacterium avium): 17 mm
- zone of inhibition at 10 µg/disc (Sarcina lutea): 27 mm
- result in biomedical induction assay (BIA) (DNA): negative

Compound: COc1cc2c(cc1OC(=O)c1ccc(Br)cc1)CCN[C@]21CS[C@@H]2c3c(OC(C)=O)c(C)c4c(c3[C@H](COC1=O)N1[C@@H]2[C@H]2c3c(cc(C)c(OC)c3O)C[C@@H]([C@@H]1O)N2C)OCO4 [p-Bromobenzoyl, p-Bromobenzoylecteinascidin 743]
- zone of inhibition at 0.4 µg/disc (M. luteus; Micrococcus luteus): 8 mm
- zone of inhibition at 0.8 µg/disc (M. luteus; [2]): 10 mm
- zone of inhibition at 1.6 µg/disc (M. luteus; [3]): 12 mm
- zone of inhibition at 0.2 µg/disc (CV-1 cells; 200 ng/6.35-mm disk): 10 mm
- zone of inhibition at 0.4 µg/disc (CV-1 cells; 400 ng/6.35-mm disk): 12 mm
- zone of inhibition at 0.8 µg/disc (CV-1 cells; 800 ng/6.35-mm disk): 16 mm
- zone of inhibition at 1.6 µg/disc (CV-1 cells; 1600 ng/6.35-mm disk): 18 mm

Compound: COc1cc2c(cc1OC)[C@@]1(CS[C@@H]3c4c(OC(C)=O)c(C)c5c(c4[C@H](COC1=O)N1[C@@H]3[C@H]3c4c(cc(C)c(OC)c4OC)C[C@@H]([C@@H]1O)N3C)OCO5)NCC2 [Di- -- O-methyl, Di-O-methylecteinascidin 743]
- zone of inhibition at 0.8 µg/disc (M. luteus; [2]): 8 mm
- zone of inhibition at 1.6 µg/disc (M. luteus; [3]): 11 mm
- zone of inhibition at 0.05 µg/disc (CV-1 cells): 13 mm
- zone of inhibition at 0.1 µg/disc (CV-1 cells): 15 mm
- zone of inhibition at 0.2 µg/disc (CV-1 cells): 17 mm
- zone of inhibition at 0.4 µg/disc (CV-1 cells): 13 mm
- zone of inhibition at 0.8 µg/disc (CV-1 cells): 16 mm
- zone of inhibition at 1.6 µg/disc (CV-1 cells): 18 mm

Compound: Ecteinascidin 759A
- Zones of Inhibition (M. luteus; 800 ng/6.35-mm disk): 8 mm
- Zones of Inhibition (M. luteus; 1600 ng/6.35-mm disk): 10 mm
- times less potent than ecteinascidins 729 and 743 (M. luteus; relative to ecteinascidins 729 and 743): four to eight times less potent
- Zones of Inhibition (CV-1 cells; 400 ng/6.35-mm disk): 10 mm
- Zones of Inhibition (CV-1 cells; 800 ng/6.35-mm disk): 16 mm
- Zones of Inhibition (CV-1 cells; 1600 ng/6.35-mm disk): 16 mm
- Zone of inhibition (bacteria; 1 μg/disk): 9 mm
